Where two headings read alike, the source gives them in different places.
Columns and labels:
[1] = system: human P450 3A4; test: Metabolism (hydroxylation) of substrates using transformed yeast cells or microsomal fractions expressing human P450 3A4
Method: (§1) Then 2 ml of dichloromethane was added.

[2] = system: human P450 2A6; test: Metabolism (hydroxylation) of substrates using transformed yeast cells or microsomal fractions expressing human P450 2A6
Method: as §1

[3] = system: mixed system B (eleven human P450 molecular species); test: Metabolism of S-mephenytoin using mixture of microsomal fractions of transformed yeast cells (mixing system B); assay type: in vitro ADME; conditions: 37° C., 30 min; HPLC
Method: The mixing ratio of the human cytochrome P450 molecular species was the same as that of the mixing system B as described above. […] After the mixture was incubated at 37° C. for 30 min, 250 μl of methanol was added to the solution to stop the reaction.

[4] = molecular target: T1, human P450 2C18 (Homo sapiens, UniProt P33260); test: Metabolism (hydroxylation) of substrates using transformed yeast cells or microsomal fractions expressing human P450 2C18
T1 sequence (P33260 26-490): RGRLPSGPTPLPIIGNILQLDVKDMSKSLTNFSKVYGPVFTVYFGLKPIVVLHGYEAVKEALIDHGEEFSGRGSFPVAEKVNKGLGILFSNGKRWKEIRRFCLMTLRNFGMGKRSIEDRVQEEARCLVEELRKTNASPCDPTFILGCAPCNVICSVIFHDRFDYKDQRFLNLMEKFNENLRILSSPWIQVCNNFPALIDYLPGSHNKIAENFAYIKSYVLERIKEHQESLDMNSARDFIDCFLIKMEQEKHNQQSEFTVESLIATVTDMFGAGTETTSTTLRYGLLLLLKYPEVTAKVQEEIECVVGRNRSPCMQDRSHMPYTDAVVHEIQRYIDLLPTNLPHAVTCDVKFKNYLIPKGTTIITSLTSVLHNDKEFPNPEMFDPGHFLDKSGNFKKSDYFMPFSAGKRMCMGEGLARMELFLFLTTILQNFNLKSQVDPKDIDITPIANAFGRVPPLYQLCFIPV
Method: as §1

[5] = molecular target: T2, human P450 1A2 (Homo sapiens, UniProt P05177); test: Metabolism (hydroxylation) of substrates using transformed yeast cells or their microsomal fractions expressing human P450 1A2 and yeast NADPH-P450 reductase
T2 sequence (P05177 1-516): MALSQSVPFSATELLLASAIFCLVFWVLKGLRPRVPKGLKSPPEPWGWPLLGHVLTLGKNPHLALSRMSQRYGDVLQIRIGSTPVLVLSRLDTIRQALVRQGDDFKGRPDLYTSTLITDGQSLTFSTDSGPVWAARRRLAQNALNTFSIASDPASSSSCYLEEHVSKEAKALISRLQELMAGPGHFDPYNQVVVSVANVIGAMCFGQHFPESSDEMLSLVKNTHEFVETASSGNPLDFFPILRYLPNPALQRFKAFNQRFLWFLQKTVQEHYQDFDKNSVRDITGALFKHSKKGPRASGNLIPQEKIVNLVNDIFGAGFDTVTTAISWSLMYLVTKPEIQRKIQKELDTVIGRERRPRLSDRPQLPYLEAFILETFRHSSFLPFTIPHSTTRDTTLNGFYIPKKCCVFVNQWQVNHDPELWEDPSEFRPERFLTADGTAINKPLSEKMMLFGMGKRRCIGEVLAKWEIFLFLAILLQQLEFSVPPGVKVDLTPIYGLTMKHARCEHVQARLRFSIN
Method: as §1

[6] = molecular target: T3, human P450 1A1 (Homo sapiens, UniProt P04798); test: Metabolism (hydroxylation) of substrates using transformed yeast cells or microsomal fractions expressing human P450 1A1; conditions: Table 1; recombinant yeast cells or microsomal fractions; conditions per substrate
T3 sequence (P04798 1-512): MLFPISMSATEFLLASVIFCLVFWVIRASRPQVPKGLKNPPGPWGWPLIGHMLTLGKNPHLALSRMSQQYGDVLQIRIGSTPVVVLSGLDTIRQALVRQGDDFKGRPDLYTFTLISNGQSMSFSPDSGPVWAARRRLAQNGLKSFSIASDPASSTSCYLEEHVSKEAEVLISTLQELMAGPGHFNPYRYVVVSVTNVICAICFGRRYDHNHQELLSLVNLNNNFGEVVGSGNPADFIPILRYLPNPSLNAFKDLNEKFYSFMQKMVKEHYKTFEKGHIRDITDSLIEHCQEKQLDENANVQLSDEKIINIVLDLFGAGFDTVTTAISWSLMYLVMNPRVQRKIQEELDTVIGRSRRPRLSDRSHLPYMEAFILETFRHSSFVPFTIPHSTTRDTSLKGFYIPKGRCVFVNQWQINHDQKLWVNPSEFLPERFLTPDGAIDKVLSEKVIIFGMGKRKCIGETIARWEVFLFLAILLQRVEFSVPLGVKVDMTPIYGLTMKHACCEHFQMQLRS

[7] = molecular target: human P450 2C9 (Homo sapiens, UniProt P11712); test: Metabolism (hydroxylation) of substrates using transformed yeast cells or microsomal fractions expressing human P450 2C9
human P450 2C9, sequence (P11712 whole entry): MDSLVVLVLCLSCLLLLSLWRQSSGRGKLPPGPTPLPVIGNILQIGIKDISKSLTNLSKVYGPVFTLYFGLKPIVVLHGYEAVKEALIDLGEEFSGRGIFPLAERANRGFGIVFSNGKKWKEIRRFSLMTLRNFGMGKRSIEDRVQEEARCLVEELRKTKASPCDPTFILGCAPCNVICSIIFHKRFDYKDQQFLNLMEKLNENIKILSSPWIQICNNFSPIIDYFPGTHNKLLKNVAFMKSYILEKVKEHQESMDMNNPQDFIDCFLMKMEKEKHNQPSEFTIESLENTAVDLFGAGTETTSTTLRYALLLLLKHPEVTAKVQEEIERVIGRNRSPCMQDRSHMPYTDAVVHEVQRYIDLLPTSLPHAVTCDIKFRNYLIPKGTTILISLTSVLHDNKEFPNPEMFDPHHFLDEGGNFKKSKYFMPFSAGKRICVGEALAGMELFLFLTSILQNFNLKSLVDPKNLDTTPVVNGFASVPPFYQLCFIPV
Method: as §1

[8] = system: human P450 2C8; test: Metabolism (hydroxylation) of substrates using transformed yeast cells or microsomal fractions expressing human P450 2C8
Method: as §1

[9] = system: human P450 2D6; test: Metabolism (hydroxylation) of substrates using transformed yeast cells or microsomal fractions expressing human P450 2D6
Method: as §1

[10] = system: other human P450 molecular species
[11] = molecular target: human P450 2E1 (Homo sapiens, UniProt P05181); test: Metabolism (hydroxylation) of substrates using transformed yeast cells or microsomal fractions expressing human P450 2E1
human P450 2E1, sequence (P05181 whole entry): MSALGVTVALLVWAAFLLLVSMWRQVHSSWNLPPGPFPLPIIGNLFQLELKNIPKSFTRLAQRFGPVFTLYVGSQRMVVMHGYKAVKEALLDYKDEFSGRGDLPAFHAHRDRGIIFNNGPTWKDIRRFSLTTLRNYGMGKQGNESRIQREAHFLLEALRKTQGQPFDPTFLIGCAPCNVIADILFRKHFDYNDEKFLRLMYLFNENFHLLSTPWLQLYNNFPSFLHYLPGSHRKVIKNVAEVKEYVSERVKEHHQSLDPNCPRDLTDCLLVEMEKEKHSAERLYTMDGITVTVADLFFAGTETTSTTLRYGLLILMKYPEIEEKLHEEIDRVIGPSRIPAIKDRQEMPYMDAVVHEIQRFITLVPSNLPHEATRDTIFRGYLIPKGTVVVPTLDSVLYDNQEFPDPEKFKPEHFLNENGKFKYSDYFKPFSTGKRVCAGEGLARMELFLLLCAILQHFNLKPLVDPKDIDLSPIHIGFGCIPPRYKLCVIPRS
Method: as §1

[12] = molecular target: T4, human P450 2B6 (Homo sapiens, UniProt P20813); test: Metabolism (hydroxylation) of substrates using transformed yeast cells or microsomal fractions expressing human P450 2B6
T4 sequence (P20813 1-491): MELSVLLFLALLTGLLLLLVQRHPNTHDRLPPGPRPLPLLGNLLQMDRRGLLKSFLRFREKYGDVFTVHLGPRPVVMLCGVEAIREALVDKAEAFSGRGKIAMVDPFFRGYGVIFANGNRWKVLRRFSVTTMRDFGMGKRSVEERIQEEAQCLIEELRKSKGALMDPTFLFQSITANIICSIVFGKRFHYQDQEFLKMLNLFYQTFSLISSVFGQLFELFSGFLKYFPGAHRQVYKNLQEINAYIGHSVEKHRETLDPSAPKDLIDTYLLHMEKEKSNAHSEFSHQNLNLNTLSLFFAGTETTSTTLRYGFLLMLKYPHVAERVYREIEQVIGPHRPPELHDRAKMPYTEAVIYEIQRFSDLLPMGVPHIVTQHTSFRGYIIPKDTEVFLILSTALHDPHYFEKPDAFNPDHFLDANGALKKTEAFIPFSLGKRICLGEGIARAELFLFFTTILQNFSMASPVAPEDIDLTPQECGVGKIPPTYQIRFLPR
Method: as §1

[13] = molecular target: human P450 2C19 (Homo sapiens, UniProt P33261); test: Metabolism (hydroxylation) of substrates using transformed yeast cells or microsomal fractions expressing human P450 2C19
human P450 2C19, sequence (P33261 whole entry): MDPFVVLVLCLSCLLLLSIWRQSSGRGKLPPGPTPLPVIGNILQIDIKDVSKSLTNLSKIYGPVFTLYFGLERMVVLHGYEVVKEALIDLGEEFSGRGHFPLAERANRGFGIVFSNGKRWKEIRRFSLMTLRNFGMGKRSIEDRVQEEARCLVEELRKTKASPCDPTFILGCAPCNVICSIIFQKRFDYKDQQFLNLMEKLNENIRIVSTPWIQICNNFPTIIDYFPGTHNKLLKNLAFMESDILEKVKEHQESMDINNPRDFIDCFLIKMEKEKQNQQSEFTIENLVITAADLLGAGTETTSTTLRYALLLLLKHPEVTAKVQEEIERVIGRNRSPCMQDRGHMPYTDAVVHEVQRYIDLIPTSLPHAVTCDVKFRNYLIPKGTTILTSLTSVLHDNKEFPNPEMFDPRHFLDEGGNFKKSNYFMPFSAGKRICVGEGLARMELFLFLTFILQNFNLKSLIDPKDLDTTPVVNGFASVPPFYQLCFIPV
Method: as §1

[14] = system: other human P450 molecular species; test: Metabolism of substrates using yeast cells or microsomal fractions expressing the other human P450 molecular species (those not given); conditions: the remaining of the eleven human P450 species
[15] = system: mixed microsomal fractions of yeasts expressing human cytochrome P450 (3A4, 2C9, 2C8, 2C18, 2C19, 1A2, 2E1, 1A1, 2B6, 2D6); test: Metabolism of debrisoquine using mixture of microsomal fractions of transformed yeast cells; assay type: in vitro ADME; conditions: 37° C., 30 min; HPLC
Method: The mixing molar ratio of the human cytochrome P450 molecular species were as follows: [table] […] After the mixture was incubated at 37° C. for 30 min, 50 μl of 60% perchlorate was added to the solution to stop the reaction.

[16] = molecular target: T3, human P450 1A1; conditions: microsomes
[17] = Table 1, recombinant yeast cells or microsomal fractions, conditions per substrate

Row | SMILES | Hydroxylation activity, human P450 3A4 ([1]; microsomes) | Hydroxylation activity, human P450 2A6 ([2]; microsomes) | Hydroxylation activity, human P450 2C18 [4, 17] | Hydroxylation activity, human P450 1A2 [5, 17] | Hydroxylation activity, human P450 1A1 [6] | Hydroxylation activity, human P450 2C8 ([8]; microsomes) | Hydroxylation activity, human P450 2D6 ([9]; microsomes) | Hydroxylated metabolite / hydroxylation activity with yeast expressing other human P450 than those named [10] | Hydroxylation activity, human P450 2E1 [11, 17] | Hydroxylation activity, human P450 2B6 [12, 17] | further results
1 | CC[C@@]1(c2ccccc2)NC(=O)N(C)C1=O [S-Mephenytoin] | − | − | − | − | − | − | − | no activity | − | − | Metabolites compared with those reported for human liver microsome (Goldstein) [3]: well coincided; Hydroxylation activity, human P450 2C9 [7, 17]: −
2 | C[C@]12CC[C@H]3[C@@H](CCC4=CC(=O)CC[C@@]43C)[C@@H]1CC[C@@H]2O [Testosterone] |  |  | − | − | + |  |  |  | − | − | Metabolising (hydroxylation / O-deethylation) activity in words, P450 3A4 ([1]; 7-ethoxycoumarin 0.5 mM, testosterone 0.05 mM, chlorzoxazone 0.5 mM or 250 μM, acetanilide 5 mM): detected; Hydroxylation activity, human P450 3A4 [1, 17]: + + +; Hydroxylation activity, human P450 2A6 [2, 17]: −; Hydroxylation activity, human P450 2C19 [13, 17]: −; Metabolising (hydroxylation / O-deethylation) activity in words, P450 2C8 ([8]; 7-ethoxycoumarin 0.5 mM, tolbutamide 1.0 mM, testosterone 0.05 mM, chlorzoxazone, acetanilide 5 mM): detected; Hydroxylation activity, human P450 2C8 [8, 17]: +; Hydroxylation activity, human P450 2D6 [9, 17]: −; Hydroxylated metabolite / hydroxylation activity with yeast expressing other human P450 than those named [14]: not detected
3 | N=C(N)N1CCc2ccccc2C1 [Debrisoquine] | − | − |  |  |  | − | + + + | no activity |  |  | Hydroxylation activity, human P450 2C18 ([4]; microsomes): −; Hydroxylation activity, human P450 1A2 ([5]; microsomes): −; Hydroxylation activity, human P450 2C19 ([13]; microsomes): −; Hydroxylation activity, human P450 2C9 ([7]; microsomes): −; Metabolites compared with those reported for human liver microsome (Kronbach) [15]: well coincided; Hydroxylation activity, human P450 2E1 ([11]; microsomes): −; Hydroxylation activity, human P450 1A1 [16]: + +; Hydroxylation activity, human P450 2B6 ([12]; microsomes): −

Reference: US6620593B1, “Method for safety evaluation of chemical compound using recombinant yeast expressing human cytochrome P450” (Sumitomo Chemical Company, Limited, priority 1993, dated 2003)
